{
  "source": "patent US9645134B1",
  "about": "“Isotopically-labeled solvents and the use of same in testing e-cigarettes” (Celerion, Inc., priority 2013, dated 2017)",
  "key": {"[1]": {"test": "clinical study: plasma labeled and unlabeled PG by LC-MS/MS after vaporizer use or second-hand exposure", "type": "in vivo, human", "source_text": "A clinical study protocol was generated. The objectives of this study were to measure C13-labeled PG in blood and to evaluate the extent of second-hand exposure to PG and nicotine during use of a commercially-available electronic nicotine delivery system (vaporizer).\nAll subjects completed screening procedures and checked in to the clinic on the morning of the Test Visit. All subjects remained in the clinic until the completion of the final study procedure later that day.\nFollowing completion of check-in procedures, all subjects were seated in a room together approximately 30 minutes prior to the start of product administration. Subjects in the vaping group began using the vaporizers as directed by the clinic staff—one inhalation at least 3 seconds in duration every 30 seconds for a total of 30 inhalations. Each vaporizer contained a 1.8 v/v % nicotine solution in a PG vehicle. […]\nThe samples were kept at room temperature prior to centrifuge, and were centrifuged at 2500 RPM for 15 minutes at 4° C. within 60 minutes of collection. […] (+/− 10° C.) or below (within 90 minutes from collection) until analyzed by Celerion Bioanalytical Services. […]\nPlasma PG (labeled and unlabeled) and nicotine were analyzed by LC-MS/MS using analytical methods with appropriate quality controls in accordance with FDA Good Laboratory Practice (GLP) regulations (Title 21 CFR Part 58). […]"}, "rabbit": {"system": "rabbit", "details": "cited from earlier work"}, "[2]": {"details": "in vivo; cited from earlier work"}},
  "note": "Like-named read-outs stand apart in the source and are kept apart here.",
  "data": [
    {"compound": "[13CH3][13CH](O)[13CH2]O", "note": "(stereo not drawn) [Species A3, Propyleneglycol-^13C3]", "values": [
      {"measurement": "blood concentration of labeled propylene glycol", "setting": "[1]; non-vaping subjects (Subjects 4-6), in room with vaping subjects, FIG. 2", "value": "essentially no detectable levels"}
    ]},
    {"compound": "OCC(O)CO", "note": "[glycerol, propane-1,2,3-triol]", "values": [
      {"measurement": "acute oral toxicity LD50", "setting": "rabbit; in vivo, po", "value": "10,000 mg/kg"}
    ]},
    {"compound": "propane-1,2-diol [propylene glycol]", "values": [
      {"measurement": "blood concentration of unlabeled propylene glycol", "setting": "[1]; all subjects (Subjects 1-6), meal high in PG at about 4 hours, FIG. 3", "value": "significant"},
      {"measurement": "excreted by the kidneys unchanged or as the glucuronide conjugate", "setting": "[2]", "value": "approximately 45%"},
      {"measurement": "half-life", "setting": "[2]", "value": "approximately 4 hours"},
      {"measurement": "acute oral toxicity LD50", "setting": "rabbit; oral", "value": 18500, "unit": "mg/kg"}
    ]}
  ]
}
